Assay results as given in PubChem BioAssay (NCI).
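In this assay, cells in 96-well plates receive the compound at five concentrations for 48 hours. Endpoints are linearly interpolated between the surrounding concentrations. Abbreviation: GI50, concentration required for 50% inhibition of growth. Definition used: TGI = concentration required for complete inhibition of growth.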

Legend:
Test in all cases: NCI-60 cell line screen, 48 h
A549 NSCLC = system: A549 NSCLC
CAKI-1 renal = system: CAKI-1 renal
EKVX NSCLC = system: EKVX NSCLC
KM12 colon = system: KM12 colon
MCF7 breast = system: MCF7 breast
MDA-N = system: MDA-N
OVCAR-5 ovarian = system: OVCAR-5 ovarian
SNB-19 CNS = system: SNB-19 CNS
SW-620 colon = system: SW-620 colon
CCRF-CEM leukemia = system: CCRF-CEM leukemia

| SMILES | TGI (A549 NSCLC) | TGI (CAKI-1 renal) | TGI (EKVX NSCLC) | TGI (KM12 colon) | TGI (MCF7 breast) | TGI (MDA-N) | TGI (OVCAR-5 ovarian) | TGI (SNB-19 CNS) | TGI (SW-620 colon) | TGI (CCRF-CEM leukemia) | GI50 (CCRF-CEM leukemia) |
| --- | --- | --- | --- | --- | --- | --- | --- | --- | --- | --- | --- |
| Cc1sc2ccccc2[n+]1CCC(=O)O | > 100 µM | > 100 µM | > 100 µM | > 100 µM | > 100 µM | > 100 µM | > 100 µM | > 100 µM | > 100 µM |  |  |
| CC1(C)Oc2ccc(NC(=O)CCC(N)C(=O)O)cc2O1 (stereo not given) | > 100 µM | > 100 µM | > 100 µM | > 100 µM | > 100 µM | > 100 µM | > 100 µM | > 100 µM | > 100 µM | > 100 µM |  |
| COc1ccc(/C=C2\N=C(c3ccccc3)N(C3Nc4cc5c(cc4S3)NC(N3C(=O)/C(=C/c4ccc(OC)cc4)N=C3c3ccccc3)S5)C2=O)cc1 (stereo not given) | > 100 µM | > 100 µM | 99.5 µM | > 100 µM | > 100 µM | > 100 µM | > 100 µM |  | > 100 µM |  |  |
| COc1ccc2c(c1)/c(=C/c1ccc(N(C)C)cc1)c1cc(-c3ccccc3)[n+](C)n12 | 5.07 µM | 5.64 µM | 1.42 µM | 1.71 µM | 7.11 µM | 1.48 µM | 3.17 µM | 1.21 µM | 1.97 µM |  | 0.0859 µM |
| Cc1c(-c2ccccc2)c(C#N)c2nnc(C(N)=O)c(N)n12 | > 100 µM | > 100 µM | > 100 µM | > 100 µM | > 100 µM | > 100 µM | > 100 µM | > 100 µM | > 100 µM | > 100 µM |  |
| CC(C)CNC(=O)Cn1c(-c2ccccc2)cc2ccccc21 | > 100 µM | > 100 µM | > 100 µM | > 100 µM | > 100 µM | > 100 µM | > 100 µM | > 100 µM | > 100 µM | > 100 µM |  |
| Nc1cc(N2CCCC2)nc(=O)n1Cc1ccccc1 | > 100 µM | > 100 µM | > 100 µM | > 100 µM | > 100 µM |  | > 100 µM | > 100 µM | > 100 µM | > 100 µM |  |
| CC(=O)c1cc2c(s1)C(=O)c1ccccc1C2=O | 14.6 µM | 37 µM | 15.9 µM | 11.5 µM | 6.77 µM | 4.74 µM | 20.6 µM | 5.57 µM | 9.67 µM |  |  |
| CSc1c(C#N)c2n(c3ccccc13)c1ccccc1[n+]2C | 81.8 µM | 84.3 µM | 56.9 µM | > 100 µM | > 100 µM | 63.5 µM | > 100 µM |  | > 100 µM | 47.6 µM |  |
| CCCCOCn1c(=O)[nH]c(=O)c2cc(Br)ccc21 | > 100 µM | 46.9 µM | > 100 µM | > 100 µM | > 100 µM | > 100 µM | > 100 µM | > 100 µM | > 100 µM | > 100 µM |  |
| CSc1cc(N)ccc1N=Nc1ccc(S(N)(=O)=O)cc1 | 71.2 µM | > 100 µM | > 100 µM | 92.2 µM | > 100 µM | > 100 µM | > 100 µM | > 100 µM | > 100 µM | 84.5 µM |  |
| Cn1c2ccccc2c2c3c(c4c5ccccc5n(C)c4c21)C(=O)c1ccccc1C3=O | > 100 µM | > 100 µM | > 100 µM | > 100 µM | > 100 µM | > 100 µM | > 100 µM | 52.4 µM | > 100 µM | > 100 µM |  |
| COc1cc(S(=O)(=O)Nc2ccc(-c3csc(N4C(=O)CSC4c4ccccc4)n3)cc2)ccc1Cl (stereo not given) | > 100 µM | > 100 µM | > 100 µM | > 100 µM | 87.4 µM | > 100 µM | > 100 µM | > 100 µM | > 100 µM | > 100 µM |  |
| CC1(COS(=O)(=O)OCC2(C)COS(=O)(=O)OC2)COS(=O)(=O)OC1 | > 100 µM | > 100 µM | > 100 µM | > 77.3 µM | > 59.9 µM | > 100 µM | > 100 µM | > 100 µM | > 100 µM | > 64.4 µM |  |
| Cc1cc(C)n(CN(Cn2nc(C)cc2C)C2CCCCC2)n1 | > 100 µM | 97.7 µM | 84.5 µM | 49.2 µM | > 100 µM | 34.8 µM | 53.8 µM | > 100 µM | 92.7 µM | 44.8 µM |  |
| CC(C)(C)OC[C@H](O)CC#N | > 100 µM | > 100 µM | > 100 µM | > 100 µM | > 100 µM | > 100 µM | > 100 µM | > 100 µM | > 100 µM | > 100 µM |  |
| [N-]=[N+]=Nc1ccc(CNc2cc(=O)[nH]c(=O)[nH]2)cc1 | > 100 µM | > 100 µM | > 100 µM | > 100 µM | > 100 µM | > 100 µM | > 100 µM | > 100 µM | > 100 µM | > 100 µM |  |
| CC(=O)O[C@H]1C(=O)[C@@]2(C)[C@H]([C@H](OC(=O)c3ccccc3)[C@]3(O)C[C@H](OC(=O)[C@H](O)[C@@H](NC(=O)CC(C)(C)C)c4ccccc4)C(C)=C1C3(C)C)C1(OC(C)=O)CO[C@@H]1C[C@@H]2O (stereo not given in full) | > 10 µM | > 10 µM | > 10 µM |  | > 10 µM | > 10 µM | > 2.93 µM | > 10 µM | > 10 µM | > 10 µM |  |
| COc1cc2c(cc1OC)-c1c3c(cc4c1[C@@H](C2)N(C)CC4)OCO3 | 32.2 µM | 51.4 µM | 37.3 µM | 45.1 µM | 27.3 µM |  | 37.3 µM | 59.9 µM | 30.3 µM | 39.4 µM |  |
| C[n+]1c2ccccc2c(C(=O)Nc2ccc(S(=O)(=O)N=C(N)N)cc2)c2ccccc21 | > 100 µM | > 100 µM | > 100 µM | > 100 µM | > 100 µM | > 100 µM | > 100 µM | > 100 µM | > 100 µM |  |  |
| COc1cc(C2SCC(=O)N2c2ccc(Oc3ccc(Cl)cc3)c(Cl)c2)cc(OC)c1OC (stereo not given) | 69.2 µM | 33.6 µM | 56.2 µM | 46 µM | > 100 µM | 45.1 µM | 55.7 µM | > 100 µM | 58.3 µM |  |  |
